PMC12977544, “Phenotypic high-throughput screening identifies modulators of gut microbial choline metabolism” (mBio, 2026)
pEC50: −log10 of the molar value. Values after ≈ are worked out from the molar mass of the structure shown.

Legend:
[1] = test system: Proteus mirabilis ATCC 29906; assay: TMA inhibition in bacterial whole cells (LC–MS/MS of d9-TMA from d9-choline); assay type: cell-based; conditions: Proteus mirabilis, ATCC29906, 1.5 h; 1 mM d9-choline in PBS, 90 min, 37°C, anaerobic; read-out: EC50 in whole cells, P. mirabilis (TMA inhibition)
[2] = test system: Clostridium sporogenes ATCC 15579; assay: as above; assay type: cell-based; conditions: Clostridium sporogenes, ATCC15579, 1.25 h; 1 mM d9-choline in PBS, 75 min, 37°C, anaerobic
[3] = test system: Anaerococcus hydrogenalis DSM 7454; assay: as above; assay type: cell-based; conditions: 1 mM d9-choline in PBS, 75 min, 37°C, anaerobic; for pEC50: Anaerococcus hydrogenalis, DSM7454, 1.25 h
E. coli MS 200-1 = assay: MIC in MEGA medium; assay type: cell-based, Escherichia coli MS 200-1; conditions: Escherichia coli, MS2001; anaerobic, 37°C, 24 h, up to 200 µM
Procedure: (§1) For TMA inhibition assays, E. coli and P. mirabilis were grown in NCE medium supplemented with 20 mM choline chloride, A. hydrogenalis was grown in MEGA medium supplemented with 3 mM choline chloride, and C. sporogenes was grown in BHI medium supplemented with 20 mM of choline chloride to induce expression of the cut gene cluster. For MIC assays, all bacteria strains were grown in MEGA medium.

[4] = test system: Bacteroides ovatus ATCC 8483; assay: MIC in MEGA medium; assay type: cell-based; conditions: Bacteroides ovatus, ATCC8483; anaerobic, 37°C, 24 h, up to 200 µM; read-out: MIC in MEGA medium, B. ovatus
Procedure: as §1

[5] = test system: Collinsella aerofaciens ATCC 25986; assay: MIC in MEGA medium; assay type: cell-based; conditions: Collinsella aerofaciens, ATCC25986; anaerobic, 37°C, 24 h, up to 200 µM
Procedure: as §1

[6] = test system: Proteus mirabilis ATCC 29906; assay: MIC in MEGA medium; assay type: cell-based; conditions: Proteus mirabilis, ATCC29906; anaerobic, 37°C, 24 h, up to 200 µM; read-out: MIC in MEGA medium, P. mirabilis
Procedure: as §1

[7] = test system: Clostridium sporogenes ATCC 15579; assay: MIC in MEGA medium; assay type: cell-based; conditions: Clostridium sporogenes, ATCC15579; anaerobic, 37°C, 24 h, up to 200 µM
Procedure: as §1

[8] = test system: Eubacterium rectale ATCC 33656; assay: MIC in MEGA medium; assay type: cell-based; conditions: Agathobacter rectalis, ATCC33656; anaerobic, 37°C, 24 h, up to 200 µM; read-out: MIC in MEGA medium, E. rectale
Procedure: as §1

[9] = test system: Anaerococcus hydrogenalis DSM 7454; assay: MIC in MEGA medium; assay type: cell-based; conditions: Anaerococcus hydrogenalis, DSM7454; anaerobic, 37°C, 24 h, up to 200 µM
Procedure: as §1

[10] = test system: Bacteroides thetaiotaomicron VPI-5482; assay: MIC in MEGA medium; assay type: cell-based; conditions: Bacteroides thetaiotaomicron, VPI5482; anaerobic, 37°C, 24 h, up to 200 µM; read-out: MIC in MEGA medium, B. thetaiotaomicron
Procedure: as §1

[11] = test system: Bacteroides caccae ATCC 43185; assay: MIC in MEGA medium; assay type: cell-based; conditions: Bacteroides caccae, ATCC43185; anaerobic, 37°C, 24 h, up to 200 µM; read-out: MIC in MEGA medium, B. caccae
Procedure: as §1

Cc1ccc(-c2cc(C(=O)NCCCN3CCc4ccccc4C3)c(C)[nH]2)cc1C [Compound 5]
pEC50 [1]: 4.48
pEC50 [2]: 4.55
EC50 in whole cells, A. hydrogenalis (TMA inhibition) [3]: No inhibition

Cc1ccc(-c2cc(C(=O)NCCCCCN3CCCCCC3)c(C)[nH]2)cc1C [Compound 45]
pEC50 [1]: 5.15
pEC50 [2]: 4.85
pEC50 [3]: 4.74
MIC (E. coli MS 200-1): > 200 µM
MIC [4]: > 200 µM
MIC [5]: > 200 µM
MIC [6]: > 200 µM
MIC [7]: > 200 µM
MIC [8]: > 200 µM
MIC [9]: > 200 µM
MIC [10]: > 200 µM
MIC [11]: > 200 µM

Cc1ccc(-c2cc(C(=O)NCCCN3CCC(C)CC3)c(C)[nH]2)cc1C [Compound 6]
pEC50 [1]: 4.32
pEC50 [2]: 3.88
pEC50 [3]: 4.51
MIC (E. coli MS 200-1): > 200 µM
MIC [4]: > 200 µM
MIC [5]: > 200 µM
MIC [6]: > 200 µM
MIC [7]: > 200 µM
MIC [8]: 200 µM (≈ 73.5 µg/mL)
MIC [9]: 200 µM (≈ 73.5 µg/mL)
MIC [10]: > 200 µM
MIC [11]: > 200 µM
